Measurements taken from patent US10981911B2, “Imidazopyrrolopyridine as inhibitors of the JAK family of kinases” (Janssen Pharmaceutica NV, priority 2016, dated 2021).

Key:
Assay type in all cases: biochemical
[1] = biological target: JAK3-JH1JH2 (Homo sapiens (Human), UniProt P52333); assay: Enzymatic inhibition assay (RapidFire HTMS), JAK3; settings: 150 μM ATP, 40 μM substrate
Source text: (§1) LC/MS grade Water and Acetonitrile (ACN), were purchased from HoneyWell, Burdick & Jackson (Muskegon, Mich., USA). Dimethylsulfoxide 99.8% (DMSO) and Trifluoroacetic Acid 99.5% (TFA) were purchased from EMD Chemical (Gibbstown, N.J., USA). Adenosine triphosphate (ATP), 4-Morpholinepropanesulfonic acid (MOPS), Magnesium chloride (MgCl2), ethylenediaminetetraacetic acid (EDTA), dithiothreitol (DTT), formic acid >95% (FA) and Tween-20 were purchased from Sigma (St Louis, Mo., USA). 384-well polypropylene plates, Cat #781280 were purchased from Greiner (Monroe, N.C.), RapidFire™ cartridge A C4 Column (Agilent Technologies, Santa Clara, Calif.).
(§2) The HTMS experiments were performed in positive ionization mode on a RapidFire 300 instrument (Agilent Technologies, Santa Clara, Calif.), coupled with an ABSiex QTrap 4000 system with an Electrospray Ionization source (RF-MS) (Concord, ON, Canada). […] The entire system was operated using the RapidFire software interfaced with Analyst software for the mass spectrometer.
(§3) 11-point dosing series were made for each compound by serially diluting 1:3 or 1:4 in DMSO, with point 12 being a DMSO control. From the serial dilution plates, sample was transferred to a 384 wells assay plate (#781280, Greiner, Monroe, N.C.) using Labcyte Echo (Sunnyvale, Calif.), or Biosero ATS (San Diego, Calif.). The compounds were tested in duplicate. Column 12 was used for positive controls, and column 24 contained negative controls with no enzyme added. A compound from our internal collection, with inhibitory activity for JAK isoforms, was used as a reference compound. […] The Tyk2 enzyme was pre-incubated with 2 mM ATP for 30 min prior to the reaction initiation. Immediately after the addition of the enzyme to the reaction mixture, the plate was centrifuged at 1000 rpm for 1 minute and incubated at 25° C. for 45 minutes for JAK 3 and 90 minutes for JAK1, JAK2 and Tyk2. The reaction was quenched by the addition of 20 μL of 0.5% TFA containing 0.15 μM of internal standard peptide using Multidrop Combi reagent dispenser (Thermo Scientific, Waltham, Mass.). […] After the quench, the assay plate was centrifuged at 3000 rpm for 3 minutes and sealed with pierceable aluminum foil (Cat #06644-001, Agilent) using a PlateLoc (Agilent Technologies, Santa Clara, Calif.). The plates then were transferred on to the RapidFire for the MS analysis. Compound inhibition was assessed by a decrease of the phosphorylated product levels in sample wells compared to the non-inhibited enzyme reaction.
(§4) The sample analysis on the RapidFire was performed using a mobile phase A consisting of Water/TFA/FA (100:0.01:0.1, v/v/v), a mobile phase B consisting of ACN/Water/TFA/FA (80:20:0.01:0.1, v/v/v). […] The samples were aspirated directly from the 384 assay plate and delivered onto RF-MS microscale solid-phase C4 extraction cartridge (Type A). The undesired component such as salt, cofactor, detergent and large protein were washed out and the retained analytes (substrate, product and IS) were coeluted directly onto the ABSiex Qtrap 4000 system.

[2] = biological target: JAK1-JH1JH2 (Homo sapiens (Human), UniProt P23458); assay: Enzymatic inhibition assay (RapidFire HTMS), JAK1; settings: 12.5 μM ATP, 200 μM substrate; read-out: JAK1-JH2JH1 IC50
Source text: as §1, §2
as §3, with “compound. The final concentration of DMSO was ≤0.25% in a 20 μL reaction.” for “compound.”
as §4

[3] = biological target: Tyk2-JH1JH2 (Homo sapiens (Human), UniProt P29597, C1142A/C936A); assay: Enzymatic inhibition assay (RapidFire HTMS), Tyk2; settings: 50 μM ATP, 200 μM substrate
Source text: as §1, §2
as §3, with “compound. The final concentration of DMSO was ≤0.25% in a 20 μL reaction.” for “compound.”
as §4

[4] = biological target: JAK2-JH1JH2 (Homo sapiens (Human), UniProt O60674); assay: Enzymatic inhibition assay (RapidFire HTMS), JAK2; settings: 30 μM ATP, 40 μM substrate
Source text: as §1, §2
as §3, with “compound. The final concentration of DMSO was ≤0.25% in a 20 μL reaction.” for “compound.”
as §4

Sequence of JAK1-JH1JH2 (P23458 574-1154): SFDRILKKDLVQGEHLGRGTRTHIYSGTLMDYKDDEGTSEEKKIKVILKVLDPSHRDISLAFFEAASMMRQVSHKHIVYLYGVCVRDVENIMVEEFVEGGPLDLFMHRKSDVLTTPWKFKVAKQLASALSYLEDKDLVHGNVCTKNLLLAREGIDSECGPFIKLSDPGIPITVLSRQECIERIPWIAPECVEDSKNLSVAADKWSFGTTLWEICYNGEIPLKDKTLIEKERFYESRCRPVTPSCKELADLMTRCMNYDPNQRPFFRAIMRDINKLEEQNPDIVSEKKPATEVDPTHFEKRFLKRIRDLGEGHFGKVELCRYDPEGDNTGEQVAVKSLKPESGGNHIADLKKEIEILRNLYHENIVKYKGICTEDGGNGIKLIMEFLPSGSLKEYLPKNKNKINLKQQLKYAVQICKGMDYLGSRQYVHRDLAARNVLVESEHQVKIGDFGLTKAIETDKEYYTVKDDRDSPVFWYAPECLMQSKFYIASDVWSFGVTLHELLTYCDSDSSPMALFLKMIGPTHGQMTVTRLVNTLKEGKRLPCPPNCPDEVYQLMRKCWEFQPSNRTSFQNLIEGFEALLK
Sequence of JAK3-JH1JH2 (P52333 512-1124): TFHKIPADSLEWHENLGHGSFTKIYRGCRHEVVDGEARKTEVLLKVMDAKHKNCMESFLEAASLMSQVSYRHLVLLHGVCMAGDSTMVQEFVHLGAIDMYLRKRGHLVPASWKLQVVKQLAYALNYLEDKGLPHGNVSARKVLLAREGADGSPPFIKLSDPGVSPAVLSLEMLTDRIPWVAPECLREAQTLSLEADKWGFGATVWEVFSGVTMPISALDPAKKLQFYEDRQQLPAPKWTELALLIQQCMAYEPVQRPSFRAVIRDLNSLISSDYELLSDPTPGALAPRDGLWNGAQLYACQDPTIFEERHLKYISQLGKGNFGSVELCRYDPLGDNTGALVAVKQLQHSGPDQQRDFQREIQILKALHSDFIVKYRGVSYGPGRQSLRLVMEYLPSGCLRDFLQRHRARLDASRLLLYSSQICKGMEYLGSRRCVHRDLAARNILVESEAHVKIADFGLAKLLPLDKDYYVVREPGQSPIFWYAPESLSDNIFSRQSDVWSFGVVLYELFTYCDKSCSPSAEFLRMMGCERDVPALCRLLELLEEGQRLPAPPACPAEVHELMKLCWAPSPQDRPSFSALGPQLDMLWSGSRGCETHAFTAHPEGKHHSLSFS
Sequence of JAK2-JH1JH2 (O60674 532-1132): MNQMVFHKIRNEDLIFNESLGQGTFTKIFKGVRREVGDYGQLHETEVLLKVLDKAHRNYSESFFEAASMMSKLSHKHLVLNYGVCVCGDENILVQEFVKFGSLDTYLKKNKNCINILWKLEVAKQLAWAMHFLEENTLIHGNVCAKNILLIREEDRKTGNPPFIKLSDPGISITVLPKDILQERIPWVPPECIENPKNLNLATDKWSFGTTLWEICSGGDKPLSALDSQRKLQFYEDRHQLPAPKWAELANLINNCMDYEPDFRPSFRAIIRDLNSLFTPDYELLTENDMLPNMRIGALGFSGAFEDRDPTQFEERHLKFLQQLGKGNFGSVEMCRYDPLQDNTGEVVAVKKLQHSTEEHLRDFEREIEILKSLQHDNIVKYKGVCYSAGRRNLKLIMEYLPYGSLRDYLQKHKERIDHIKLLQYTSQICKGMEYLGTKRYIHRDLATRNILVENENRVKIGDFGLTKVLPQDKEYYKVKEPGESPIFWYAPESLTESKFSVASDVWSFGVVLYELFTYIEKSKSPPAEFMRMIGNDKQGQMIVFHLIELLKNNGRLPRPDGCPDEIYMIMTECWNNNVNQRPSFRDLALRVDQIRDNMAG
Sequence of Tyk2-JH1JH2 (P29597 580-1182 C936A/C1142A): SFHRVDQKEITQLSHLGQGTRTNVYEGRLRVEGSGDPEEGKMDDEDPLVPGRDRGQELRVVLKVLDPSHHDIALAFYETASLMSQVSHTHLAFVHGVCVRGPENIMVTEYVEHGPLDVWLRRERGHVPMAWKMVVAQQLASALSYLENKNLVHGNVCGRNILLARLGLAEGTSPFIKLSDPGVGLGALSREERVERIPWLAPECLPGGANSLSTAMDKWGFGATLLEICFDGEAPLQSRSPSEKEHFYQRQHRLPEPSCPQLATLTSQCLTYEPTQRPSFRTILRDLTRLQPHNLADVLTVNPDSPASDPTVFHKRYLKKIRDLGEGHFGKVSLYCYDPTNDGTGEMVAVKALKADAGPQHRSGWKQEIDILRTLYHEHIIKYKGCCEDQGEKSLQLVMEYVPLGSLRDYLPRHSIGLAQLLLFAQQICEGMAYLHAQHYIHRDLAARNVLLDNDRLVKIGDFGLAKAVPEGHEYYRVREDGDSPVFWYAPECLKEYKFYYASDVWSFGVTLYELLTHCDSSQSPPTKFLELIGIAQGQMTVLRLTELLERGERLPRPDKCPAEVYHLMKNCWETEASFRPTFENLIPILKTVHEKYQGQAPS

| Structure (SMILES) | IC50 [1] | IC50 [2] | IC50 [3] | IC50 [4] |
| --- | --- | --- | --- | --- |
| N#CC[C@H]1CC[C@H](n2c(CC(=O)NCC3(O)COC3)nc3cnc4[nH]ccc4c32)CC1 [Ex. 24, 2-(1-((1r,4r)-4-(Cyanomethyl)cyclohexyl)-1,6-dihydroimidazo[4,5-d]pyrrolo[2,3-b]pyridin-2-yl)-N-((3-hydroxyoxetan-3-yl)methyl)acetamide] | 57.5 nM | 0.1 nM | 3.3 nM | 4.9 nM |
| N#CC[C@H]1CC[C@H](n2c(CC(=O)N3CCC(N4CCOCC4)CC3)nc3cnc4[nH]ccc4c32)CC1 [Ex. 26, 2-((1r,4r)-4-(2-(2-(4-Morpholinopiperidin-1-yl)-2-oxoethyl)imidazo[4,5-d]pyrrolo[2,3-b]pyridin-1(6H)-yl)cyclohexyl)acetonitrile] | 106 nM | 0.1 nM | 2.7 nM | 6.1 nM |
| N#CC[C@H]1CC[C@H](n2c(CC(=O)NCCO)nc3cnc4[nH]ccc4c32)CC1 [Ex. 29, 2-(1-((1r,4r)-4-(Cyanomethyl)cyclohexyl)-1,6-dihydroimidazo[4,5-d]pyrrolo[2,3-b]pyridin-2-yl)-N-(2-hydroxyethyl)acetamide] | 67.2 nM | 0.1 nM | 3.8 nM | 7.3 nM |
| N#CC[C@H]1CC[C@H](n2c(CNC(=N)c3ccccc3)nc3cnc4[nH]ccc4c32)CC1 [Ex. 30, N-((1-((1r,4r)-4-(Cyanomethyl)cyclohexyl)-1,6-dihydroimidazo[4,5-d]pyrrolo[2,3-b]pyridin-2-yl)methyl)benzimidamide] | 996 nM | 0.2 nM | 1.6 nM | 6.6 nM |
| N#CC[C@H]1CC[C@H](n2c(-c3n[nH]cc3Cl)nc3cnc4[nH]ccc4c32)CC1 [Ex. 31, 2-((1r,4r)-4-(2-(4-Chloro-1H-pyrazol-3-yl)imidazo[4,5-d]pyrrolo[2,3-b]pyridin-1(6H)-yl)cyclohexyl)acetonitrile] | 121 nM | 0.2 nM | 3.7 nM | 5.5 nM |
| N#CC[C@H]1CC[C@H](n2c(CC(=O)NC34CC5CC(CC(C5)C3)C4)nc3cnc4[nH]ccc4c32)CC1 [Ex. 32, N-((3R,5R)-Adamantan-1-yl)-2-(1-((1r,4r)-4-(cyanomethyl)cyclohexyl)-1,6-dihydroimidazo[4,5-d]pyrrolo[2,3-b]pyridin-2-yl)acetamide] | 59.3 nM | 0.2 nM | 2.8 nM | 1.3 nM |
| N#CC[C@H]1CC[C@H](n2c(CC(=O)NCc3cnccn3)nc3cnc4[nH]ccc4c32)CC1 [Ex. 35, 2-(1-((1r,4r)-4-(Cyanomethyl)cyclohexyl)-1,6-dihydroimidazo[4,5-d]pyrrolo[2,3-b]pyridin-2-yl)-N-(pyrazin-2-ylmethyl)acetamide] | 107 nM | 0.2 nM | 4.5 nM | 3.6 nM |
| N#CC[C@H]1CC[C@H](n2c(CC(=O)N[C@H]3C[C@H](O)C3)nc3cnc4[nH]ccc4c32)CC1 [Ex. 37, 2-(1-((1r,4r)-4-(Cyanomethyl)cyclohexyl)-1,6-dihydroimidazo[4,5-d]pyrrolo[2,3-b]pyridin-2-yl)-N-((1R,3R)-3-hydroxycyclobutyl)acetamide] | 38.8 nM | 0.2 nM | 4.3 nM | 4.6 nM |
| N#CC[C@H]1CC[C@H](n2c(CC(=O)NCc3ccc(C#N)cc3)nc3cnc4[nH]ccc4c32)CC1 [Ex. 39, N-(4-Cyanobenzyl)-2-(1-((1r,4r)-4-(cyanomethyl)cyclohexyl)-1,6-dihydroimidazo[4,5-d]pyrrolo[2,3-b]pyridin-2-yl)acetamide] | 142 nM | 0.2 nM | 10 nM | 5.3 nM |
| N#CC[C@H]1CC[C@H](n2c(CNC(N)=O)nc3cnc4[nH]ccc4c32)CC1 [Ex. 40, 1-((1-((1r,4r)-4-(Cyanomethyl)cyclohexyl)-1,6-dihydroimidazo[4,5-d]pyrrolo[2,3-b]pyridin-2-yl)methyl)urea] | 47 nM | < 0.2 nM | 0.3 nM | 1 nM |

Further lines, results first:

| IC50 [1] | IC50 [2] | IC50 [3] | IC50 [4] | Structure (SMILES) |
| --- | --- | --- | --- | --- |
| 38.1 nM | 0.1 nM | 3.5 nM | 1.4 nM | N#CC[C@H]1CC[C@H](n2c(CC(=O)NC34CCC(C#N)(CC3)C4)nc3cnc4[nH]ccc4c32)CC1 [Ex. 23, N-(4-Cyanobicyclo[2.2.1]heptan-1-yl)-2-(1-((1r,4r)-4-(cyanomethyl)cyclohexyl)-1,6-dihydroimidazo[4,5-d]pyrrolo[2,3-b]pyridin-2-yl)acetamide] |
| 36.9 nM | 0.1 nM | 7.2 nM | 2.9 nM | N#CC[C@H]1CC[C@H](n2c(CC(=O)N[C@H]3CC[C@H](CO)CC3)nc3cnc4[nH]ccc4c32)CC1 [Ex. 27, 2-(1-((1r,4r)-4-(Cyanomethyl)cyclohexyl)-1,6-dihydroimidazo[4,5-d]pyrrolo[2,3-b]pyridin-2-yl)-N-((1r,4r)-4-(hydroxymethyl)cyclohexyl)acetamide] |
| 32.7 nM | 0.1 nM | 3.5 nM | 2.4 nM | N#CC[C@H]1CC[C@H](n2c(CC(=O)NC3CCCCC3)nc3cnc4[nH]ccc4c32)CC1 [Ex. 28, 2-(1-((1r,4r)-4-(Cyanomethyl)cyclohexyl)-1,6-dihydroimidazo[4,5-d]pyrrolo[2,3-b]pyridin-2-yl)-N-cyclohexylacetamide] |
| 38 nM | 0.2 nM | 3.8 nM | 2.3 nM | N#CC[C@H]1CC[C@H](n2c(CC(=O)N[C@H]3CC[C@H](O)CC3)nc3cnc4[nH]ccc4c32)CC1 [Ex. 33, 2-(1-((1r,4r)-4-(Cyanomethyl)cyclohexyl)-1,6-dihydroimidazo[4,5-d]pyrrolo[2,3-b]pyridin-2-yl)-N-((1r,4r)-4-hydroxycyclohexyl)acetamide] |
| 12 nM | 0.2 nM | 2.2 nM | 0.8 nM | N#CC[C@H]1CC[C@H](n2c(CC(=O)NCc3ncc[nH]3)nc3cnc4[nH]ccc4c32)CC1 [Ex. 36, N-((1H-imidazol-2-yl)methyl)-2-(1-((1r,4r)-4-(cyanomethyl)cyclohexyl)-1,6-dihydroimidazo[4,5-d]pyrrolo[2,3-b]pyridin-2-yl)acetamide] |
| 19.9 nM | < 0.2 nM | 0.6 nM | 0.4 nM | N#CC[C@H]1CC[C@H](n2c(Cc3cscn3)nc3cnc4[nH]ccc4c32)CC1 [Ex. 41, 2-((1r,4r)-4-(2-(Thiazol-4-ylmethyl)imidazo[4,5-d]pyrrolo[2,3-b]pyridin-1(6H)-yl)cyclohexyl)acetonitrile] |
